Data set [1] concerns Plasmodium falciparum. The data set is described as follows: NOVARTIS: Inhibition of Plasmodium falciparum W2 (drug-resistant) proliferation in erythrocyte-based infection assay. The data set is classed as functional, organism-based. The settings on record: Plasmodium falciparum, W2; read-out: EC50.
For data set [2], the system named is Plasmodium falciparum. Put plainly: NOVARTIS: Inhibition of Plasmodium falciparum 3D7 (drug-susceptible) proliferation in erythrocyte-based infection assay. The data set is classed as functional, organism-based. The following applies: Plasmodium falciparum, 3D7.
Data set [3] is described as follows: NOVARTIS: Cytotoxicity against human hepatocellular carcinoma cell line (Huh7). The format is toxicity, cell-based, Huh-7. The settings on record: Huh7 cells (hepatocellular carcinoma cell line).

Data on 54 molecules can be found in ChEMBL document CHEMBL1156829 (Proc Natl Acad Sci U S A, 2008).

Molecules are shown by their SMILES.

The EC50 is the concentration needed to bring the measured effect to its halfway point. A word on the CC50: it is the concentration at which the toxic effect on the cells reaches its halfway point. Read a high CC50 as better tolerance by the cells.

Regarding `CSc1nnc(CN2CCSCC2)n1C`, the EC50 in data set [1] was above 1250 nM; in data set [2], 2030 nM. Besides, in data set [3], the CC50 was above 10000 nM.
Taken in the same sequence, the figures for `COc1ccccc1/C=C/CN(CCN1CCN(S(=O)(=O)c2cccc(C(F)(F)F)c2)CC1)C(=O)Cc1ccccc1` were above 1250 nM, 1320 nM and above 10000 nM.
The matching figures for `Cc1ccccc1N1C(=O)N(c2ccccc2)C2CS(=O)(=O)CC21` (configuration not stated): above 1250 nM, 1920 nM and above 10000 nM.
Taken in the same sequence, the figures for `CCOc1ccccc1NC(=O)C1C(c2ccccc2)=C1c1ccccc1` were above 1250 nM, 1800 nM and above 10000 nM.
Regarding `C=CCNC(=S)N1CCN(c2ccc([N+](=O)[O-])cc2)CC1`, the figures for the concentration for a half-maximal effect (EC50) in data set [1] and in data set [2] were above 1250 nM and 2370 nM, respectively. Besides, in data set [3], the CC50 was above 10000 nM.
Taken in the same sequence, the figures for `Cc1cc(N2CCCCC2)nc2ccc(NC(=O)c3cncc(Br)c3)cc12` were above 1250 nM, 1360 nM and above 10000 nM.
The matching figures for `c1ccc(Oc2ccc(Nc3nc4nonc4nc3Nc3ccc(Oc4ccccc4)cc3)cc2)cc1`: above 1250 nM, 1760 nM and above 10000 nM.
Taken in the same sequence, the figures for `c1cncc(CCNc2nccn3c(-c4cccc5ccccc45)cnc23)c1` were above 1250 nM, 1240 nM and above 10000 nM.
`O=C1/C(=C/c2ccccc2)Oc2c1ccc(O)c2CN1CCCCC1`: the EC50 in data set [1] was 1260 nM; in data set [2] it was above 1250 nM. Further, the cytotoxic concentration (CC50) in data set [3] is above 10000 nM.
In the case of `CCCCN1C=CC=C/C1=C\c1sc2ccccc2[n+]1CC`, the EC50 amounted to 226 nM in data set [1] and 120 nM in data set [2]. Also, in data set [3], half-maximal cytotoxicity (CC50) was put at 1800 nM.
Consider `Cc1cc(C)c2nc(NS(=O)(=O)c3cccc(C(=O)O)c3)sc2c1`, for which the EC50 was 1250 nM in data set [1] and 693 nM in data set [2]. This molecule yielded a CC50 in data set [3] above 10000 nM.
Regarding `COc1ccc2nc(C)cc(Nc3ccc(Oc4ccc(Br)c5ccccc45)c(Cl)c3)c2c1`, the concentration giving a half-maximal response (EC50) in data set [1] was 2340 nM; in data set [2], 1110 nM. Besides, in data set [3], the CC50 was 18300 nM.
For the molecule `CCOC(=O)c1sc(=S)n(-c2ccc(N(C)C)cc2)c1N`, the EC50 in data set [1] was above 1270 nM; in data set [2] it was above 1190 nM. The CC50 in data set [3] was above 10000 nM.
As for `CC(C(=O)NN=C1CCN(C)CC1)N(c1ccccc1)S(C)(=O)=O` (configuration not stated), the figures for the EC50 in data set [1] and in data set [2] were 1270 nM and above 1250 nM, respectively. For the same molecule, the CC50 in data set [3] is above 10000 nM.
The matching figures for `Cc1c(C(=O)N2CCN(c3ccc([N+](=O)[O-])cc3)CC2)sc2ncnc(N(C)c3ccccc3)c12`: above 1250 nM, 1650 nM and above 10000 nM.
Turning to `O=C1Cc2c([nH]c3ccc(OCc4ccccc4)cc23)C2CC=CCC12` (configuration not stated), the EC50 in data set [1] was above 1250 nM; in data set [2], 1590 nM. The molecule also displayed a CC50 in data set [3] above 10000 nM.
Taken in the same sequence, the figures for `COc1ccc(-n2cc(-c3ccc(C)cc3)nc2SCC(=O)Nc2ccc(C)cc2)cc1` were above 1250 nM, 2230 nM and above 10000 nM.
Turning to `CCOC(=O)C(=O)N1c2ccc(C)cc2C(C)(c2ccccc2)CC1(C)C` (configuration not stated), the EC50 in data set [1] was above 1250 nM; in data set [2] it was 2130 nM. In data set [3], this molecule showed a CC50 above 10000 nM.
Regarding `CCOC(=O)c1c(NC(=O)CSc2nc3c(c(=O)n(C)c(=O)n3C)n2C(C)C)sc2c1CCCC2`, the concentration giving a half-maximal response (EC50) in data set [1] is above 1250 nM; in data set [2] it was 1560 nM. Moreover, the CC50 in data set [3] was above 10000 nM.
The matching figures for `CCN1/C(=C/c2cccc[n+]2C)Sc2cc(NC(C)=O)ccc21`: above 1250 nM, 1400 nM and above 10000 nM.
As to `COc1ccc(C2NCCc3c2[nH]c2ccccc32)cc1CSc1nc2ccccc2[nH]1` (configuration not stated), the concentration for a half-maximal effect (EC50) worked out at 2590 nM in data set [1] and 1750 nM in data set [2]. In data set [3], this molecule yielded a 50% cytotoxic concentration (CC50) of 20400 nM.
The matching figures for `CC(C)CNc1nc(NCCCN(C)C)ncc1C(=O)NCc1ccccc1`: above 1290 nM, 316 nM and above 10000 nM.
Regarding `Clc1ccc2[nH]c3c(NCCC4=CCCCC4)ncnc3c2c1`, the EC50 in data set [1] was found to be 2000 nM; in data set [2], 988 nM. For the same molecule, the CC50 in data set [3] is 15800 nM.
As to `CCN1/C(=C\C=C\C2=[N+](C)c3ccccc3C2(C)C)N(c2ccccc2)c2ccccc21`, the EC50 in data set [1] was determined as 1260 nM; in data set [2] it was 1400 nM. The CC50 in data set [3] was above 10000 nM.
Taken in the same sequence, the figures for `O=c1c2sccc2nc(SCc2cc(=O)n3ccccc3n2)n1Cc1ccccc1` were 1280 nM, above 1250 nM and above 10000 nM.
The matching figures for `CCC(=O)N1CCN(C(=O)c2ccc(C)cc2)C1`: 1280 nM, above 1500 nM and above 10000 nM.
Taken in the same sequence, the figures for `CCOc1ccccc1C=NNc1nc(Nc2ccccc2)nc(Nc2ccccc2)n1` were above 1250 nM, 2050 nM and above 10000 nM.
For the molecule `CCOc1ccc(-n2cc(-c3ccccc3)c3c(SCc4cc(C)ccc4C)ncnc32)cc1`, the figures for the EC50 in data set [1] and in data set [2] were above 1250 nM and 2010 nM, respectively. Also, the CC50 in data set [3] is above 10000 nM.
On to `CN(C)c1ccc(C=NNc2nc(N)nc(N)n2)cc1`, for which the results for the EC50 in data set [1] and in data set [2] were above 1250 nM and 2000 nM, respectively. For the same molecule, in data set [3], the CC50 was above 10000 nM.
The matching figures for `O=C(C1CC=CCC1)N1CCCC(c2ncncc2-c2ccncc2)C1` (configuration not stated): above 1250 nM, 1370 nM and above 10000 nM.
The matching figures for `CCC(c1nc2ccccc2c(=O)n1CC)N1CCN(C(=O)Nc2ccccc2C(F)(F)F)CC1` (configuration not stated): above 1250 nM, 1300 nM and above 10000 nM.
As for `COC(=O)C1N(C(=O)OC)c2ccc([N+](=O)[O-])cc2S1(=O)=O` (configuration not stated), the EC50 in data set [1] is above 1280 nM; in data set [2], 362 nM. Besides, the CC50 in data set [3] is above 10000 nM.
Taken in the same sequence, the figures for `O=C(NC(CN1CCCC1)c1ccccc1)C1CCCCN1S(=O)(=O)c1ccccc1` (configuration not stated) were 1260 nM, 632 nM and above 10000 nM.
The matching figures for `N#CC(c1ccc(C(F)(F)F)cc1)c1ccc2c(C(F)(F)F)cc(C(F)(F)F)nc2n1` (configuration not stated): 316 nM, 413 nM and 2510 nM.
The matching figures for `COc1cccc(C(=O)N(CCCC(C)Nc2cc(OC)cc3cccnc23)Cc2ccc(OC)c(OC)c2)c1` (configuration not stated): 513 nM, 1480 nM and above 4010 nM.
Regarding `Oc1ccc(-c2cncc(NCc3ccccc3)n2)cc1`, the results for the EC50 in data set [1] and in data set [2] were above 1250 nM and 1750 nM, respectively. The CC50 in data set [3] is above 10000 nM.
With `O=C(Nc1cccc(-c2nc3ccccc3[nH]2)c1)c1ccccc1[N+](=O)[O-]`, the EC50 is above 772 nM in data set [1] and above 1720 nM in data set [2]. In addition, in data set [3], the CC50 was above 6000 nM.
Consider `Cc1ccc2nc(-c3ccc(NC(=O)c4ccc(S(=O)(=O)N5CC(C)CC(C)C5)cc4)cc3)sc2c1` (configuration not stated), for which the EC50 is above 1250 nM in data set [1] and 1320 nM in data set [2]. The 50% cytotoxic concentration (CC50) in data set [3] is above 10000 nM.
Turning to `COc1ccc(CCNC(=O)c2cc(S(=O)(=O)N3CC(C)CC(C)C3)ccc2Sc2ccc(F)cc2)cc1OC` (configuration not stated), the EC50 in data set [1] was 1260 nM; in data set [2] it was 1050 nM. The molecule also registered a CC50 in data set [3] above 10000 nM.
Regarding `CC(=NOC(=O)c1ccco1)c1cnccn1`, the EC50 in data set [1] is above 1250 nM; in data set [2], 1250 nM. The CC50 in data set [3] was above 10000 nM.
The matching figures for `Cc1nc(Oc2ccc3ccc(=O)oc3c2)c2c3c(sc2n1)CCCCC3`: above 1250 nM, 2300 nM and above 10000 nM.
As for `COc1ccc(-n2nc(C(=O)NCC(=O)NCCCN3CCOCC3)c3ccccc3c2=O)cc1Cl`, the figures for the EC50 in data set [1] and in data set [2] were above 1250 nM and 1260 nM, respectively. The CC50 in data set [3] is above 10000 nM.
For `COC(=O)c1c(S(=O)(=O)N2CCN(C)CC2)sc2c1CCN(CCCc1ccccc1)C2`, the EC50 in data set [1] turned out to be 1260 nM; in data set [2], 1420 nM. The same molecule yielded a half-maximal cytotoxic concentration (CC50) in data set [3] above 10000 nM.
The matching figures for `COc1ccc(Cl)cc1-n1c(-c2cccnc2)n[nH]c1=S`: above 1250 nM, 1870 nM and above 10000 nM.
Turning to `Oc1ccc(-c2nc3ccccc3s2)cc1CN1CCCCC1`, the EC50 was 786 nM in data set [1] and 1140 nM in data set [2]. The molecule further displayed a CC50 in data set [3] above 6130 nM.
Turning to `COCCNCc1cc2cc3c(cc2n(Cc2cccc(F)c2)c1=O)OCO3`, the EC50 in data set [1] was 1270 nM; in data set [2] it was above 1250 nM. Further, in data set [3], the CC50 is above 10000 nM.
The matching figures for `CCC(C)N(CCC(=O)N1CCN(Cc2ccccc2)CC1)C(=O)Nc1cccc(Cl)c1Cl` (configuration not stated): above 1060 nM, above 1560 nM and above 8390 nM.
Taken in the same sequence, the figures for `O=C1c2ccccc2-c2nc3ccc(C(F)(F)F)cc3nc21` were 1260 nM, 1140 nM and above 10000 nM.
As for `Oc1ccccc1-c1nc(-c2ccccc2)nc(-c2ccc(Br)cc2)n1`, the EC50 is above 1280 nM in data set [1] and above 1160 nM in data set [2]. The molecule also registered a CC50 in data set [3] above 10000 nM.
The matching figures for `COc1ccc(C2CC(c3ccccc3Cl)n3ncnc3N2C(=O)C2CC2)cc1` (configuration not stated): above 1280 nM, 1320 nM and above 10000 nM.
Consider `O=C(COc1ccccc1)Nc1nccs1`, for which the EC50 in data set [1] is 1260 nM; in data set [2] it was above 1250 nM. This molecule also showed a CC50 in data set [3] above 10000 nM.
The matching figures for `C/C(Cl)=C/Cc1c(C)nc2c(ccc3ccccc32)c1O`: 1280 nM, 857 nM and above 10000 nM.
The matching figures for `CC(NC(=O)Cc1ccc(F)cc1)C(c1cccs1)N1CCOCC1` (configuration not stated): above 1250 nM, 2010 nM and above 10000 nM.
As to `CC1(C)CN=C(N2CCN(CC(O)COc3ccc(OCC(O)CN4CCN(C5=NCC(C)(C)S5)CC4)cc3)CC2)S1` (configuration not stated), the figures for the 50% effective concentration (EC50) in data set [1] and in data set [2] were above 1250 nM and 2420 nM, respectively. The same molecule had a CC50 in data set [3] above 10000 nM.
